Earlier results as cited in patent US20120129799A1, “STABLE COMPOSITION OF READY-TO-USE GEMCITABINE INJECTION” (ASTRON RESEARCH LIMITED, priority 2009, published 2012).
Entries after “also recorded” stand apart in the source; their conditions may differ.

Key:
[1] = higher pH (5.0 to 9.0)

Nc1ccn([C@@H]2O[C@H](CO)[C@@H](O)C2(F)F)c(=O)n1 [Gemcitabine, 1-(2-oxo-4-amino-1,2-dihydropyrimidin-1-yl)-2-deoxy-2,2-difluororibose]
degradation products obtained (aqueous solution, pH 3.2 (sodium acetate), thermally stressed conditions): four significant degradation products | chemical stability of aqueous solution (aqueous solution, pH of approximately 3.0): not chemically stable | stability in aqueous solution (higher pH (5.0 to 9.0)): remains stable | stability (lower pH): poor stability | aqueous solubility [1]: low aqueous solubility; also recorded: very low solubility
